The text below walks through data of patent US20220354957A1, “PEPTIDES TARGETING MACROPHAGES, AND CONJUGATES, COMPOSITIONS, AND USES THEREOF” (Twinpig Biolab, Inc., priority 2021, published 2022).

Series [1] relates to macrophages treated with TCM. In words: Cell viability of macrophages differentiated by TCM. Type of series: cell-based, human. As to conditions: 1 μM.
For a further series, the system named is CT26. Briefly: Colon cancer model (CT26). The following applies: vs PBS group. Type of series: in vivo, mouse. The source says:
(§1) BALB/c and C57BL/6 (B6) wild-type mice were purchased from DBL. For the subcutaneous tumor model of melanoma and prostate cancer, CT26 (3×10^5 cells/mouse), B16F10 (1×10^6 cells/mouse) and TRAMP-C2 cells (1×10^6 cells/mouse) were mixed with Matrigel matrix (Corning) and inoculated subcutaneously into the right flank of the mice, and 4T1 (1×10^5 cells/mouse) cells mixed with Matrigel matrix and inoculated into a 4th mammary fat pad of the mice. TAMpepK, and MpepK peptides (200 nmol/kg) were injected intraperitoneally every 3 days, beginning at day 7 after tumor inoculation, and tumor volume was measured by electronic caliper. All tumor tissues were harvested after the end of the study and tumor weight was measured by an electronic balance.

In series [2] the test system is lung fibrosis induced by bleomycin. Briefly: Mouse model of lung fibrosis (bleomycin). Type of series: in vivo. As for the experimental part: For lung fibrosis mouse model, C57BL/6 (B6) wild-type mice were lightly anesthetized with 2.5% isoflurane and administered bleomycin (BLM, 2 mg/kg) via oropharyngeal aspiration (OA) using a micropipette. After 14 days, the mice were intraperitoneally injected with MpepK (200 nmol/kg) every other day. The animal studies were approved by the Institutional Animal Care and Use Committee of Kyung Hee University (KHUASP(SE)-20-530 for melanoma and 20-382 for prostate cancer). All animals were maintained in a specific pathogen-free environment on a 12-h light/dark cycle with free access to food and water. Nesting sheets were used for enrichment. After the experiments were terminated, all mice were euthanized using isoflurane and cervical dislocation.
(§2) Total RNA was extracted using Easy-Blue reagent. Concentrations of RNA were determined and quantified by measuring absorbance at 260 and 280 nm with a spectrophotometer. […] PCR conditions were forty-five cycles at 95° C. for 5 min, followed by 95° C. for 10 sec, 60° C. for 10 sec and 72° C. for 10 sec. mRNA expression were quantified in triplicate. Data were measured with CFX Software (Bio-Rad). […]
The lung tissues of lung fibrosis mouse model were fixed in 10% neutral buffered formalin and embedded in paraffin. […] The sections were examined and evaluated randomly using standard light microscopy (Olympus).

The next series concerns 4T1. In words: 4th mammary orthotopic mouse model of breast cancer (4T1). Type of series: in vivo.
Source text: as §1
Total RNA was extracted using Easy-Blue reagent. Concentrations of RNA were determined and quantified by measuring absorbance at 260 and 280 nm with a spectrophotometer. Complementary DNA (cDNA) was synthesized from total RNA using a Maxime RT PreMix kit (iNtRON). Real-time PCR analysis was performed with SYBR Green Master Mix. PCR conditions were forty-five cycles at 95° C. for 5 min, followed by 95° C. for 10 sec, 60° C. for 10 sec and 72° C. for 10 sec. mRNA expression were quantified in triplicate. Data were measured with CFX Software (Bio-Rad). GAPDH and β-actin were used as internal controls.

In series [3] the test system is TGF-β1-induced A549 cells cocultured with IL-4 and IL-13 induced THP-1 macrophages. In words: In vitro lung fibrosis model, coculture. Type of series: cell-based, human. The following applies: 1.5 μM, cocultured with M2 polarization of THP-1. On the procedure: THP-1 cells were purchased from the American Type Culture Collection (ATCC) and cultured according to their specific indications, using an RPMI 1640 medium supplemented with non-heat-treated 10% fetal bovine serum (FBS; WelGENE), 2 mM L-glutamine, 0.05 mM β-mercaptoethanol, 10 mM HEPES, 4500 mg/L glucose, 100 U/ml penicillin and 100 μg/ml streptomycin (Gibco). Human alveolar cell, A549 cells, obtained from the American Type Culture Collection (ATCC), were cultured in RPMI 1640 medium containing 2.05 mM L-glutamine, 2 g/liter sodium bicarbonate and 2 g/liter glucose (WelGENE) together with 10% FBS (WelGENE), 100 U/ml penicillin and 100 μg/m1 streptomycin (Gibco). Cells were cultured at 37° C. in a 5% CO2 humidified incubator to reach 80% of confluence.
THP-1 cells are differentiated into macrophages by 24 h incubation with 100 nM phorbol 12-myristate 13-acetate (PMA, Sigma) followed by 24 h incubation in RPMI medium (Invtrogen). […]
as §2

For another series, the system named is Hepa1-6 cells. In words: Mouse model of hepatocellular carcinoma (subcutaneous Hepa1-6). Type of series: in vivo. On the procedure: C57BL/6 (B6) wild-type mice purchased from DBL. For the subcutaneous tumor model of hepatocellular carcinoma, Hepa1-6 cells were mixed with Matrigel matrix (Corning) and inoculated subcutaneously into the right flank (4×10^5 cells/mouse) of the mice. MpepK peptide (100, 200 and 400 nmol/kg) were injected intraperitoneally every 3 days, beginning at day 12 after tumor inoculation and tumor volume was measured by electronic caliper. All animals were maintained in a specific pathogen-free environment on a 12-h light/dark cycle with free access to food and water. After the experiments were terminated, all mice were euthanized using isoflurane and cervical dislocation.

For the molecule `CC[C@H](C)[C@H](NC(=O)[C@H](CC(C)C)NC(=O)[C@H](C)NC(=O)[C@@H]1CCCN1C(=O)[C@H](CC(C)C)NC(=O)CNC(=O)[C@@H](NC(=O)[C@@H](NC(=O)[C@H](CC(C)C)NC(=O)[C@@H](NC(C)=O)C(C)C)[C@@H](C)O)[C@@H](C)O)C(=O)N[C@@H](CO)C(=O)N[C@@H](Cc1c[nH]c2ccccc12)C(=O)N[C@H](C(=O)N[C@@H](CCCCN)C(=O)N[C@@H](CCCNC(=N)N)C(=O)N[C@@H](CCCCN)C(=O)N[C@@H](CCCNC(=N)N)C(=O)N[C@@H](CCC(N)=O)C(=O)N[C@@H](CCC(N)=O)C(=O)NCC(=O)NCC(=O)NCC(=O)NCC(=O)N[C@@H](CO)C(=O)N[C@H](CCCCN)C(=O)N[C@H](CC(C)C)C(=O)N[C@H](C)C(=O)N[C@H](CCCCN)C(=O)N[C@H](CC(C)C)C(=O)N[C@H](C)C(=O)N[C@H](CCCCN)C(=O)N[C@H](CCCCN)C(=O)N[C@H](CC(C)C)C(=O)N[C@H](C)C(=O)N[C@H](CCCCN)C(=O)N[C@H](CC(C)C)C(=O)N[C@H](C)C(=O)N[C@H](CCCCN)C(=O)O)[C@@H](C)CC` [MpepK], in series [1], the “apoptosis in macrophages treated with TCM” value was “induced apoptosis”. In the series with CT26, the tumor volume entry is on record as “significantly reduced” and the tumor weight result was “not significantly changed”. Further, in series [2] (200 nmol/kg i.p. every other day, H&E), the “lung fibrosis induced by bleomycin” value is listed as “decreased”. The “gene expression related to fibrosis such as fos12, collagen type 1 and fibronectin 1” value in series [2] (compared to PBS) is on record as “significantly reduced”. Moreover, the “gene expression of arginase 1 (M2 macrophage marker)” value in the series with 4T1 (compared to PBS) is given as “significantly reduced”. In addition, in the series on 4T1 (vs PBS group), the lung metastasis result was “decreased”, the tumor volume entry was “decreased” and the tumor weight result is “decreased”. In series [3], the “inhibitory effect on EMT and FMT of epithelial cells” value is on record as “no significant inhibitory effect”. For the same molecule, the body weight change entry in the series on Hepa1-6 cells (Hepa1-6 model, 100, 200 and 400 nmol/kg i.p. every 3 days) was “no significant difference”. Moreover, in the series with Hepa1-6 cells (Hepa1-6 model, 100, 200 and 400 nmol/kg, vs PBS group), the survival rate entry is given as “significantly extended”. Further, the tumor volume entry with Hepa1-6 cells (Hepa1-6 model, all doses (100, 200 and 400 nmol/kg) i.p. every 3 days, vs PBS group) was “significantly reduced”.
